From publication PMC8566089 (Bioorganic Chemistry, 2021)
Read-outs that look alike come from different tables or passages of the source.

Tests used:
VEGFR-2 [1] = target: T1, VEGFR-2 (Homo sapiens, UniProt P35968); assay: VEGFR-2 Western blot in HCT116; format: cell-based; settings: for VEGFR2 HCT116 % Inhibition: Western blot at MTT-IC50; for VEGFR2 HCT116 RQ (relative quantification): Western blot at MTT-IC50, control RQ 3.817
EGFR [2] = target: T2, EGFR (Homo sapiens, UniProt P00533); assay: EGFR Western blot in HCT116; format: cell-based; settings: for EGFR HCT116 % Inhibition: Western blot at MTT-IC50; for EGFR HCT116 RQ (relative quantification): Western blot at MTT-IC50, control RQ 4.0382
COX-2 = target: T3, COX-2 (Homo sapiens, UniProt P35354); assay: COX-2 inhibitor screening kit; format: biochemical
T3 sequence (P35354 18-604): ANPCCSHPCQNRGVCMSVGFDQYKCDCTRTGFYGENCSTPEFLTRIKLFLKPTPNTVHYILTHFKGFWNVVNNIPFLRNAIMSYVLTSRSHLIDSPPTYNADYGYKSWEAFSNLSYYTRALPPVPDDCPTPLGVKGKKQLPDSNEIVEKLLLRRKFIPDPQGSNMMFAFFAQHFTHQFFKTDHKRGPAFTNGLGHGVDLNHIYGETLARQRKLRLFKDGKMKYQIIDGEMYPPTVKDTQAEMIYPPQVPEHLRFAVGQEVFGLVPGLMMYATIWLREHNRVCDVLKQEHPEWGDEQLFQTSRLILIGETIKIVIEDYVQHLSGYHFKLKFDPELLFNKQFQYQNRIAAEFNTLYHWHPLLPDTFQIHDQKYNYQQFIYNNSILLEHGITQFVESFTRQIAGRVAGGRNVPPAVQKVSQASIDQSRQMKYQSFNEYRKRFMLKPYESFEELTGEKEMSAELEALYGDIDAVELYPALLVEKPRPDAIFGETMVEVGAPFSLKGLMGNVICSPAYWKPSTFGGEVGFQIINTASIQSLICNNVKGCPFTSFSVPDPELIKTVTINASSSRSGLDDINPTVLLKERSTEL

[3] = test system: MCF7 (breast) cancer cell line; assay: MTT antiproliferative assay, MCF7; format: cell-based; settings: for IC50: Homo sapiens, MCF7, 72 h, read-out: IC50 ± SE, MCF7; for SI (selectivity index), MCF7: IC50 of RPE1 relative to that of MCF7
[4] = test system: HCT116 (colon) cancer cell line; assay: MTT antiproliferative assay, HCT116; format: cell-based; settings: for IC50: Homo sapiens, HCT-116, 72 h, read-out: IC50 ± SE, HCT116; for SI (selectivity index), HCT116: IC50 of RPE1 relative to that of HCT116
[5] = test system: HCT116 (colon cancer cell line); assay: Annexin V-FITC apoptosis/necrosis study; format: cell-based; settings: at MTT-IC50 of the agent
[6] = test system: RPE1 (normal human immortalized retinal pigment epithelial cell line); assay: MTT assay against normal RPE1 cells; format: cell-based; settings: RPE-1, read-out: IC50 ± SE, RPE1
EGFR [7] = target: T2, EGFR; assay: EGFR Western blot in MCF7; format: cell-based; settings: for EGFR MCF7 % Inhibition: Western blot at MTT-IC50; for EGFR MCF7 RQ (relative quantification): Western blot at MTT-IC50, control RQ 4.226
[8] = test system: HCT116 (colon cancer cell line); assay: PI-flow cytometry cell cycle analysis; format: cell-based; settings: for phase of cell cycle arrest: PI-flow cytometry; for DNA content (%) G0-G1 / DNA content (%) G2/M / DNA content (%) Pre-G1 / DNA content (%) S: at MTT-IC50 of the agent
[9] = test system: SARS-CoV-2 (hCoV-19/Egypt/NRC-03/2020); settings: SARS-CoV-2 / VERO-E6
[10] = test system: A431 (squamous skin) cancer cell line; assay: MTT antiproliferative assay, A431; format: cell-based; settings: for IC50: Homo sapiens, A-431, 72 h, read-out: IC50 ± SE, A431; for SI (selectivity index), A431: IC50 of RPE1 relative to that of A431
VEGFR-2 [11] = target: T1, VEGFR-2; assay: VEGFR-2 Western blot in MCF7; format: cell-based; settings: for VEGFR2 MCF7 % Inhibition: Western blot at MTT-IC50; for VEGFR2 MCF7 RQ (relative quantification): Western blot at MTT-IC50, control RQ 3.725
COX-1 = target: T4, COX-1 (Ovis aries, UniProt P05979); assay: COX-1 inhibitor screening kit; format: biochemical
T4 sequence (P05979 25-600): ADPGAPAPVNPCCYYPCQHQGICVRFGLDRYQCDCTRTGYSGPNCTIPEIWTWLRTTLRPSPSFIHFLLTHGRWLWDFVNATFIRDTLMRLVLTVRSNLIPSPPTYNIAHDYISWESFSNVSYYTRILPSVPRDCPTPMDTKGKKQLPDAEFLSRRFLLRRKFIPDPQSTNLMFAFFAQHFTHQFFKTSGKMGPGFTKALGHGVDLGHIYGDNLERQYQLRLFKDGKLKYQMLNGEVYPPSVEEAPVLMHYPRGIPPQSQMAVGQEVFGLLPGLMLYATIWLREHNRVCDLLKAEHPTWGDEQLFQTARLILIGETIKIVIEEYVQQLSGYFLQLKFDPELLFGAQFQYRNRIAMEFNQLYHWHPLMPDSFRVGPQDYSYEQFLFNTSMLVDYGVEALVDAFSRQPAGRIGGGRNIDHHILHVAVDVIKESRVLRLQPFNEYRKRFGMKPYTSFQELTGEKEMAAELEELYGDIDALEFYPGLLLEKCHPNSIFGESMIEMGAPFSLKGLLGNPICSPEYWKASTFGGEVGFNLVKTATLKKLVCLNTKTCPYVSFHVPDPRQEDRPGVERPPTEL

[12] = test system: MCF7 (breast) cancer cell line; settings: read-out: IC50 ± SE, MCF7; cited from earlier work
[13] = test system: HCT116 (colon) cancer cell line; settings: read-out: IC50 ± SE, HCT116; cited from earlier work

T2 sequence (P00533 25-1210): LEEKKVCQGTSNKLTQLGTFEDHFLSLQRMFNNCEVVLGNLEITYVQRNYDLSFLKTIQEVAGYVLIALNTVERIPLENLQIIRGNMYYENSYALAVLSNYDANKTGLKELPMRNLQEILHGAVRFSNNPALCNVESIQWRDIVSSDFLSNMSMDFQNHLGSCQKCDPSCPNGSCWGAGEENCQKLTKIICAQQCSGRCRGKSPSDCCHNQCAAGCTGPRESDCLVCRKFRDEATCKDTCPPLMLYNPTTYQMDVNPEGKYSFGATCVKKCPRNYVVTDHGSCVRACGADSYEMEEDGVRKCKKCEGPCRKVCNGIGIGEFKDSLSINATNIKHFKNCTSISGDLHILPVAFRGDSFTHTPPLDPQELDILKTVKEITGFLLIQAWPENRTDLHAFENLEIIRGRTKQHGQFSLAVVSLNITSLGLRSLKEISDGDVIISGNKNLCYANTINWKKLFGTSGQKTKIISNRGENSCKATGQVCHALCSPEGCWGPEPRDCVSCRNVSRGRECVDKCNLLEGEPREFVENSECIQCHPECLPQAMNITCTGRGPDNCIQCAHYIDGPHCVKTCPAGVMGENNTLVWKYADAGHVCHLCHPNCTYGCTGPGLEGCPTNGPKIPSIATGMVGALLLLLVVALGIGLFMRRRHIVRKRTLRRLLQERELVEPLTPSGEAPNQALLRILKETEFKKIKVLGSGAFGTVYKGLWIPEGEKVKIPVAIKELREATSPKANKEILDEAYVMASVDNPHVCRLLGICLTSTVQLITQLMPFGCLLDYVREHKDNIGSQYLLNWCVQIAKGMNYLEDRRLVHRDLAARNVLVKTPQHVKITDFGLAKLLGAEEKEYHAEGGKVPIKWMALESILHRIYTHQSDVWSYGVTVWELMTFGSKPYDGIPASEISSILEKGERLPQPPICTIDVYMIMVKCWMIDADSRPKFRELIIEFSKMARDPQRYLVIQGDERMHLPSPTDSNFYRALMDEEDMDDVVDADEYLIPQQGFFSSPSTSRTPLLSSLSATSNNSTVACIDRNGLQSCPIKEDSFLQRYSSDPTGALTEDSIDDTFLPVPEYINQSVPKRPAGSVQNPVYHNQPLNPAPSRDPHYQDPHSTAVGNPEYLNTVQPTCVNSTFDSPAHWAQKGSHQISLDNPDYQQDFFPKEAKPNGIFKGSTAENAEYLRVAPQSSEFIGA
T1 sequence (P35968 20-1356): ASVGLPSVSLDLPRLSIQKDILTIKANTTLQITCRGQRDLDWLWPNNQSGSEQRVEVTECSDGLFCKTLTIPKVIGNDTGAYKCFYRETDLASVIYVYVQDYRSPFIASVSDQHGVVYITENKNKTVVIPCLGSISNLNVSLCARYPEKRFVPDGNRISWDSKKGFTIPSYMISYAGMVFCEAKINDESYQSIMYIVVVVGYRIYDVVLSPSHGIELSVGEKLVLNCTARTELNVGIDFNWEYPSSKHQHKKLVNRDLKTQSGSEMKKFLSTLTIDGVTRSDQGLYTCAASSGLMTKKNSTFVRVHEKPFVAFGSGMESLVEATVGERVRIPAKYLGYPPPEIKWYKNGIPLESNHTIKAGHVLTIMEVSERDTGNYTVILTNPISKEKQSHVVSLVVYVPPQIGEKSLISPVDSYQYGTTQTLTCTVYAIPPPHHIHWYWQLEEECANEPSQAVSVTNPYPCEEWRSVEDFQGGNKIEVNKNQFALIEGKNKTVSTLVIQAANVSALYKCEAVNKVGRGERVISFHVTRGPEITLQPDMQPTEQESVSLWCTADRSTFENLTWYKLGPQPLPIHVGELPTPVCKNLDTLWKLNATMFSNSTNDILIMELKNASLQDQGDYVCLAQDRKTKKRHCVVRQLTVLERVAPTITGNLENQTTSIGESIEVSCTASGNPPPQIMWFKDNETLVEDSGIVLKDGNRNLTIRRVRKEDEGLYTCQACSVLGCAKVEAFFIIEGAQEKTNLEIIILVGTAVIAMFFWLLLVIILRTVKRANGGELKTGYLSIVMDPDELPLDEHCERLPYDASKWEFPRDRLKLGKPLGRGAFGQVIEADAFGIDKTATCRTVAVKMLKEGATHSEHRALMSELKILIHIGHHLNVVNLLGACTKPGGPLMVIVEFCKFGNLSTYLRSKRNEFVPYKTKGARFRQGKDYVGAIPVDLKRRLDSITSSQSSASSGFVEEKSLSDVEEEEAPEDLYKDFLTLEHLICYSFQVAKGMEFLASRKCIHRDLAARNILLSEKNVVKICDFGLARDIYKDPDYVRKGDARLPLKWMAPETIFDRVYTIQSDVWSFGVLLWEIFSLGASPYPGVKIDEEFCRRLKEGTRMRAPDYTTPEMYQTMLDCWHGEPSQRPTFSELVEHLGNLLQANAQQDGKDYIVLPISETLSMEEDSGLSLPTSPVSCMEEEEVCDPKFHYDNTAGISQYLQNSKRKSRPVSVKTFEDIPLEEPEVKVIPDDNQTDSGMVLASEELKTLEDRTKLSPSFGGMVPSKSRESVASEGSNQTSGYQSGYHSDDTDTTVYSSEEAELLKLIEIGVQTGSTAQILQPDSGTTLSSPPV

SMILES | VEGFR2 HCT116 % Inhibition (VEGFR-2 [1]) [%] | VEGFR2 HCT116 RQ (relative quantification) (VEGFR-2 [1]) | EGFR HCT116 % Inhibition (EGFR [2]) [%] | EGFR HCT116 RQ (relative quantification) (EGFR [2]) | IC50 (COX-2) [µM] | SI = IC50(COX-1)/IC50(COX-2) (COX-2) | IC50 [3] [µM] | SI (selectivity index), MCF7 [3] | IC50 [4] [µM] | SI (selectivity index), HCT116 [4] | Apoptosis (%) Early [5] [%] | Apoptosis (%) Total [5] [%] | Necrosis (%) [5] [%] | IC50 [6] [µM] | EGFR MCF7 % Inhibition (EGFR [7]) [%] | EGFR MCF7 RQ (relative quantification) (EGFR [7]) | phase of cell cycle arrest [8] | DNA content (%) G0-G1 [8] [%] | DNA content (%) G2/M [8] [%] | DNA content (%) Pre-G1 [8] [%] | further results
CC(=O)Oc1ccccc1C(=O)N1C/C(=C\c2ccc(Cl)cc2)C(=O)/C(=C/c2ccc(Cl)cc2)C1 [Compound 5c, 2-[3,5-Bis((E)-4-chlorobenzylidene)-4-oxopiperidine-1-carbonyl]phenyl acetate] | 73.3 | 1.02 | 62.9 | 1.5 | 2.25 | 0.121 | 2.81 ± 0.26 | 3.15 | 0.986 ± 0.08 | 8.96 | 2.29 | 44.28 | 13.41 | 8.83 ± 0.68 | 85.6 | 0.61 | G1-phase | 55.28 | 3.59 | 44.28 | Apoptosis (%) Late [5]: 28.58%; DNA content (%) S [8]: 41.13%; SI = CC50/IC50 [9]: 1.7; IC50 [10]: 1.21 ± 0.11 µM; SI (selectivity index), A431 [10]: 7.3; VEGFR2 MCF7 % Inhibition (VEGFR-2 [11]): 59.5%; VEGFR2 MCF7 RQ (relative quantification) (VEGFR-2 [11]): 1.51; IC50 (COX-1): 0.271 µM
COc1cc(/C=C2\CN(C(=O)c3cc(Cl)ccc3OC(C)=O)C/C(=C\c3cc(OC)c(OC)c(OC)c3)C2=O)cc(OC)c1OC [Compound 5o, 4-Chloro-2-(4-oxo-3,5-bis((E)-3,4,5-trimethoxybenzylidene)piperidine-1-carbonyl)phenyl acetate] | 69.6 | 1.16 | 68.2 | 1.283 | 1.6 | 0.121 | 2.65 ± 0.22 | 2.65 | 0.75 ± 0.06 | 9.36 | 1.72 | 35.75 | 9.44 | 7.02 ± 0.45 | 69.2 | 1.3 | S-phase | 42.75 | 4.14 | 35.75 | DNA content (%) S [8]: 53.11%; SI = CC50/IC50 [9]: 34.0; IC50 [10]: 0.431 ± 0.03 µM; SI (selectivity index), A431 [10]: 16.3; VEGFR2 MCF7 % Inhibition (VEGFR-2 [11]): 63.0%; VEGFR2 MCF7 RQ (relative quantification) (VEGFR-2 [11]): 1.38; IC50 (COX-1): 0.193 µM
COc1cc(/C=C/C(=O)CC(=O)/C=C/c2ccc(O)c(OC)c2)ccc1O [Cur, curcumin] | – | – | – | – | – | – | – | – | – | – | – | – | – | – | – | – | – | – | – | – | IC50 [12]: 16 ± 2.04 µM; IC50 [13]: 38.2 ± 2.36 µM
